Our source for the inhibition and IC50 values is US6583180B2, “Glucocorticoid receptor modulators” (Abbott Laboratories, priority 2001, dated 2003).

Experiment [1] addresses T1, Human glucocorticoid receptors (Homo sapiens, UniProt P04150).
T1 construct: made in house; host or cells: Sf9 insect cells, recombinant baculovirus (BAC-TO-BAC)
T1 sequence (P04150 1-777): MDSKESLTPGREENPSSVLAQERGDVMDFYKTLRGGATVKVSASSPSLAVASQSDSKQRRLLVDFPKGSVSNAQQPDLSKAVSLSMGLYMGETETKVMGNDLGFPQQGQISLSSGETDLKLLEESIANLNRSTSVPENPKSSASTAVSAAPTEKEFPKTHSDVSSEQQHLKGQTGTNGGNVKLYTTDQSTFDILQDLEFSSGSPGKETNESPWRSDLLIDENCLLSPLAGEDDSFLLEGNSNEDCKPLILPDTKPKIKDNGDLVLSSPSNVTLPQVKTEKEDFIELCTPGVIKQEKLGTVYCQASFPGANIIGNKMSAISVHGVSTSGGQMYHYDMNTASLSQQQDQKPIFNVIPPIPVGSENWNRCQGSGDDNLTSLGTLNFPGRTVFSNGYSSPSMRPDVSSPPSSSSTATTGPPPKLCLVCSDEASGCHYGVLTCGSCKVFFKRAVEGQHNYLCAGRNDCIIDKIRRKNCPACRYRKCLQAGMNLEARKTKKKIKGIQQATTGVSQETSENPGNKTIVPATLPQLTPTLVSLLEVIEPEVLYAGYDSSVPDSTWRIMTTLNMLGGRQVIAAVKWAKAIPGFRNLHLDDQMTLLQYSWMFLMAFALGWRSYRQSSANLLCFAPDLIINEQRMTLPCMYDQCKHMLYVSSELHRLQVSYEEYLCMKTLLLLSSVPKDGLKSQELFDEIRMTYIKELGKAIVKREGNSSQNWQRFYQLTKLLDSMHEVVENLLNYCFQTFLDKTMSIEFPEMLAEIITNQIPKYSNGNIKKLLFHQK
Briefly: Radioligand filter binding assay, displacement of 3[H]-dexamethasone from hGR. As to conditions: read-out: GR Binding (% Inhibition at 1.7 μM). In short, it runs like this:
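Recombinant hGR extract from baculovirus-infected Sf9 cells (final ~1 nM receptor) incubated with ³H-dexamethasone and test compound dilutions in duplicate, EDTA/phosphate pH 8 buffer with MTG, overnight (15-20 h) at +4° C. Bound label collected on PEI-treated GF/B filters and scintillation-counted; IC50 from four-parameter fit of corrected cpm.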

Experiment [2] concerns the target T2, progesterone receptor (PR) (Homo sapiens, UniProt P06401).
T2 sequence (P06401 1-933): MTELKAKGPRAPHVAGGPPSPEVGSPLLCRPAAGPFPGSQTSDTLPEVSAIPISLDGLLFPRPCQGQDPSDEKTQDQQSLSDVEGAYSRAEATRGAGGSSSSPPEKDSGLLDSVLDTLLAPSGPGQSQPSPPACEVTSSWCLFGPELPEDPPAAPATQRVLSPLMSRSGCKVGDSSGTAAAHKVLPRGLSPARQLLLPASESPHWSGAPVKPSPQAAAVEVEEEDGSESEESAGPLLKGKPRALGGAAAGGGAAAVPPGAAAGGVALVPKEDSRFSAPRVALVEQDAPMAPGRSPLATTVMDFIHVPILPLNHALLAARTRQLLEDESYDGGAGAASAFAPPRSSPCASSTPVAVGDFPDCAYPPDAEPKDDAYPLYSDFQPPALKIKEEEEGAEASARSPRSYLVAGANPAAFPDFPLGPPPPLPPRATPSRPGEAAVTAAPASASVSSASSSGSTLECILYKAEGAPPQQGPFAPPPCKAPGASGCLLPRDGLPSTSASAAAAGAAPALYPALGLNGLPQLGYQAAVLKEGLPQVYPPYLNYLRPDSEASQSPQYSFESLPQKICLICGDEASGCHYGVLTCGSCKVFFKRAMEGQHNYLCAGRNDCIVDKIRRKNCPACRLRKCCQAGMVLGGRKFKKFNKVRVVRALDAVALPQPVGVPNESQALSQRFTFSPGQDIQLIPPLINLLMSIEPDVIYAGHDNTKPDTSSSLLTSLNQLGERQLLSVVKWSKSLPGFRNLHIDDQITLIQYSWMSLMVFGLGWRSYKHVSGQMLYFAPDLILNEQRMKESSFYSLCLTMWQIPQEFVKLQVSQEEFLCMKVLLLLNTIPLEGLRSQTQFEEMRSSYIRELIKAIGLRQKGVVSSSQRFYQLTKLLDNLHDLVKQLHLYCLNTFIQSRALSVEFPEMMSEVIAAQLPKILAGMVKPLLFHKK
As to the kind of experiment: Radioligand binding assay for progesterone receptor (similar protocol).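 Further: radioligand binding measured with cytosol preparations containing the human progesterone receptor.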
Text: Methods for Radiolipand Binding Studies with Human Glucocorticoid and Progesterone Receptor Cytosol

Usually inhibition stands for the change of the read-out against control, counted positive when it falls. As usually defined, the IC50 is the concentration that gives 50% inhibition. Consider `Cc1c(NS(C)(=O)=O)cccc1N(Cc1ccc(Oc2ccc(CCC(=O)O)cc2)cc1)Cc1ccccc1F` [Example 84, 3-(4-{4-[((2-fluorobenzyl){2-methyl-3-[(methylsulfonyl)amino]phenyl}amino)methyl]phenoxy}phenyl)propanoic acid], for which, in experiment [1], the inhibition at 1.7 µM amounted to 97.9%. In experiment [2], the IC50 worked out at 468 nM.
The matching figures for `Cc1c(NS(C)(=O)=O)cccc1N(Cc1ccc(F)cc1)Cc1ccc(Oc2ccc(CCC(=O)O)cc2)cc1` [Example 85, 3-(4-{4-[((4-fluorobenzyl){2-methyl-3-[(methylsulfonyl)amino]phenyl}amino)methyl]phenoxy}phenyl)propanoic acid]: 96.9% and 351 nM.
With `Cc1c(NS(C)(=O)=O)cccc1N(Cc1ccccc1)Cc1ccc(Oc2ccc(CCCCO)cc2)cc1` [Example 101, N-[3-(benzyl{4-[4-(4-hydroxybutyl)phenoxy]benzyl}amino)-2-methylphenyl]methanesulfonamide], the inhibition at 1.7 µM in experiment [1] stood at 92.9%. This compound also returned an IC50 in experiment [2] of 1030 nM.
As for `Cc1c(NS(C)(=O)=O)cccc1N(Cc1ccccc1)Cc1ccc(Oc2ccc(CCC(=O)NCC(=O)O)cc2)cc1` [Example 104, N-[3-(4-{4-[(benzyl{2-methyl-3-[(methylsulfonyl)amino]phenyl}amino)methyl]phenoxy}phenyl)propanoyl]glycine], the inhibition at 1.7 µM in experiment [1] worked out at 95.7%. In experiment [2], this compound came in with an IC50 of 583 nM.
Turning to `Cc1c(NS(C)(=O)=O)cccc1N(Cc1ccccc1)Cc1ccc(Oc2ccc(CCC(=O)NCCC(=O)O)cc2)cc1` [Example 105, N-[3-(4-{4-[(benzyl{2-methyl-3-[(methylsulfonyl)amino]phenyl}amino)methyl]phenoxy}phenyl)propanoyl]-beta-alanine], the inhibition at 1.7 µM in experiment [1] worked out at 96.2%. In experiment [2], this compound had an IC50 of 685 nM.
The matching figures for `Cc1c(NS(C)(=O)=O)cccc1N(Cc1ccccc1)Cc1ccc(Oc2ccc(CCC(=O)NCCCC(=O)O)cc2)cc1` [Example 106, 4-{[3-(4-{4-[(benzyl{2-methyl-3-[(methylsulfonyl)amino]phenyl}amino)methyl]phenoxy}phenyl)propanoyl]amino}butanoic acid]: 96% and 1290 nM.
Consider `Cc1c(NS(C)(=O)=O)cccc1N(Cc1ccc(Oc2cccc(OCC(=O)O)c2)cc1)Cc1ccc(F)cc1F` [Example 110, (3-{4-[((2,4-difluorobenzyl){2-methyl-3-[(methylsulfonyl)amino]phenyl}amino)methyl]phenoxy}phenoxy)acetic acid], for which the inhibition at 1.7 µM in experiment [1] stood at 96.5%. The compound further registered an IC50 in experiment [2] of 214 nM.
Turning to `Cc1c(NS(C)(=O)=O)cccc1N(Cc1ccccc1)Cc1ccc(Oc2cccc(OC(C)C(=O)O)c2)cc1` (centres unmarked) [Example 111, 2-(3-{4-[(benzyl{2-methyl-3-[(methylsulfonyl)amino]phenyl}amino)methyl]phenoxy}phenoxy)propanoic acid], in experiment [1], the inhibition at 1.7 µM amounted to 95.3%. In experiment [2], this compound displayed an IC50 of 773 nM.
For `Cc1c(NS(C)(=O)=O)cccc1N(Cc1ccccc1)Cc1ccc(Oc2cccc(OCC(=O)NCCCN3CCCC3=O)c2)cc1` [Example 114, 2-(3-{4-[(benzyl{2-methyl-3-[(methylsulfonyl)amino]phenyl}amino)methyl]phenoxy}phenoxy)-N-[3-(2-oxopyrrolidin-1-yl)propyl]acetamide], the inhibition at 1.7 µM in experiment [1] was found to be 96.7%. The same compound returned an IC50 in experiment [2] of 1370 nM.
As for `COc1ccc(Oc2ccc(CN(Cc3ccc(F)cc3F)c3cccc(NS(C)(=O)=O)c3C)cc2)cc1OC` [Example 141, N-(3-{(2,4-difluorobenzyl)[4-(3,4-dimethoxyphenoxy)benzyl]amino}-2-methylphenyl)methanesulfonamide], the inhibition at 1.7 µM in experiment [1] worked out at 85.4%. For the same compound, the IC50 in experiment [2] is 8050 nM.
As to `CC#CCCOc1ccc(CN(Cc2ccc(F)cc2F)c2cccc(NS(C)(=O)=O)c2C)cc1` [Example 143, N-(3-{(2,4-difluorobenzyl)[4-(pent-3-ynyloxy)benzyl]amino}-2-methylphenyl)methanesulfonamide], in experiment [1], the inhibition at 1.7 µM is 89.3%. For the same compound, in experiment [2], the IC50 is greater than 10000 nM.
The matching figures for `Cc1c(NS(C)(=O)=O)cccc1N(Cc1ccccc1)Cc1ccc(Oc2ccc(CCC(=O)NCCN3CCOCC3)cc2)cc1` [Example 147, 3-(4-{4-[(benzyl{2-methyl-3-[(metbylsulfonyl)amino]phenyl}amino)methyl]phenoxy}phenyl)-N-(2-morpholin-4-ylethyl)propanamide]: 93.5% and 1330 nM.
Consider `Cc1c(NS(C)(=O)=O)cccc1N(Cc1ccccc1)Cc1ccc(Oc2ccc(CCC(=O)NCCCCCO)cc2)cc1` [Example 149, 3-(4-{4-[(benzyl{2-methyl-3-[(methylsulfonyl)amino]phenyl}amino)methyl]phenoxy}phenyl)-N-(5-hydroxypentyl)propanamide], for which the inhibition at 1.7 µM in experiment [1] worked out at 94.7%. The IC50 in experiment [2] worked out at 4290 nM.
The corresponding values for `Cc1c(NS(C)(=O)=O)cccc1N(Cc1ccccc1)Cc1ccc(Oc2ccc(CCC(=O)NCCCCO)cc2)cc1` [Example 150, 3-(4-{4-[(benzyl{2-methyl-3-[(methylsulfonyl)amino]phenyl}amino)methyl]phenoxy}phenyl)-N-(4-hydroxybutyl)propanamide] are 94.3% and 2550 nM.
With `Cc1c(NS(C)(=O)=O)cccc1N(Cc1ccccc1)Cc1ccc(Oc2ccc(CCC(=O)NCCCO)cc2)cc1` [Example 151, 3-(4-{4-[(benzyl{2-methyl-3-[(methylsulfonyl)amino]phenyl}amino)methyl]phenoxy}phenyl)-N-(3-hydroxypropyl)propanamide], the inhibition at 1.7 µM in experiment [1] turned out to be 94.3%. For the same compound, the IC50 in experiment [2] was 551 nM.
In the case of `Cc1c(NS(C)(=O)=O)cccc1N(Cc1ccccc1)Cc1ccc(Oc2ccc(CCC(=O)NCCO)cc2)cc1` [Example 152, 3-(4-{4-[(benzyl{2-methyl-3-[(methylsulfonyl)amino]phenyl}amino)methyl]phenoxy}phenyl)-N-(2-hydroxyethyl)propanamide], the inhibition at 1.7 µM in experiment [1] turned out to be 94.3%. Moreover, the IC50 in experiment [2] worked out at 896 nM.
For the compound `Cc1c(NS(C)(=O)=O)cccc1N(Cc1ccccc1)Cc1ccc(Oc2ccc(CCC(=O)NCCCCCCO)cc2)cc1` [Example 153, 3-(4-{4-[(benzyl{2-methyl-3-[(methlsulfonyl)amino]phenyl}amino)methyl]phenoxy}phenyl)-N-(6-hydroxyhexyl)propanamide], the inhibition at 1.7 µM in experiment [1] worked out at 91.7%. This compound showed an IC50 in experiment [2] of 255 nM.
Regarding `Cc1c(NS(C)(=O)=O)cccc1N(Cc1ccc(OCc2ccoc2)cc1)Cc1ccc(F)cc1F` [Example 154, N-(3-{(2,4-difluorobenzyl)[4-(3-furylmethoxy)benzyl]amino}-2-methylphenyl)methanesulfonamide], the inhibition at 1.7 µM in experiment [1] worked out at 92.3%. This compound also showed an IC50 in experiment [2] of 921 nM.
In the case of `Cc1c(NS(C)(=O)=O)cccc1N(Cc1ccc(OCc2ccco2)cc1)Cc1ccc(F)cc1F` [Example 155, N-(3-{(2,4-difluorobenzyl)[4-(2-furylmethoxy)benzyl]amino}-2-methylphenyl)methanesulfonamide], the inhibition at 1.7 µM in experiment [1] worked out at 92.8%. Moreover, the IC50 in experiment [2] was 499 nM.
